Assay results published in patent US8748412B2, “Phenylalanine derivatives and their use as non-peptide GLP-1 receptor modulators” (Argusina Bioscience Inc., priority 2011, dated 2014).

These molecules were tested against T1, human GLP1R (Homo sapiens, UniProt P43220) (assay: Human GLP-1 receptor transfected cell assay (MRE/CRE-luciferase reporter gene, agonist activity)). Conditions: 6 h; conc. 3.16 μM; percentage of the activity of the control; read-out: Agonist Activity.
T1 construct: expressed in transfected cells; host or cells: CHO cells (ATCC), transient transfection with pCMV-human GLP1R
Type: cell-based
Procedure, shortened: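 CHO cells transiently co-transfected with human GLP1R and MRE/CRE-driven luciferase reporter plasmids. Compound or GLP-1 (7-36 amide) standard dilution series added for 6 h at 37 °C, 5% CO2. Agonist activity read as Bright-Glo luciferase luminescence.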

T1 sequence (P43220 24-463): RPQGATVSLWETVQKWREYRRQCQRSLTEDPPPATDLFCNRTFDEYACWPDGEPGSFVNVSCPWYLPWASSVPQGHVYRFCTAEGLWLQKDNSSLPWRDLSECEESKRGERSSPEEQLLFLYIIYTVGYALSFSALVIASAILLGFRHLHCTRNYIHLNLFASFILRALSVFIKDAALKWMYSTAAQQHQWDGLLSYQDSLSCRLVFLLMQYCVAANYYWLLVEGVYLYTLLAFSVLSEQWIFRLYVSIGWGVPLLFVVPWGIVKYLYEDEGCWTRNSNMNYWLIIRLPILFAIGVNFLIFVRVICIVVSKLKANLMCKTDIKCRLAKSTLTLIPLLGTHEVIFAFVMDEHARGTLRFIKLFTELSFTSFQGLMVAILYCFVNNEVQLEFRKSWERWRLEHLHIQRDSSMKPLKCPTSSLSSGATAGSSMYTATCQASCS

activation at 3.16 µM	Structure (SMILES)
> 60%	Cc1ccc(-c2ccc(C(=O)NC(Cc3ccc(-c4noc(-c5ccc(NC(=O)OC(C)(C)C)cc5)n4)c(Br)c3)C(=O)O)o2)cc1 (stereo not shown) [Compound 13G]

Same assay, conditions: 6 h; conc. 10 μM; percentage of the activity of the control; read-out: Agonist Activity

activation at 10 µM	Structure (SMILES)
> 60%	CC(C)(C)OC(=O)Nc1ccc(-c2nc(-c3ccc(CC(NC(=O)N4CCN(c5ccc(Cl)cc5)CC4)C(=O)O)cc3F)no2)cc1 (stereo not shown) [Compound 13A]
> 60%	CC(C)(C)OC(=O)Nc1ccc(-c2nc(-c3ccc(CC(NC(=O)c4ccc(-c5ccccn5)s4)C(=O)O)cc3F)no2)cc1 (stereo not shown) [Compound 13B]
40 to 60%	CC(C)(C)OC(=O)Nc1ccc(-c2nc(-c3ccc(CC(NC(=O)Nc4ccccc4)C(=O)O)cc3F)no2)cc1 (stereo not shown) [Compound 13D]
> 60%	Cc1ccc(-c2ccc(C(=O)NC(Cc3ccc(-c4noc(-c5ccc(NC(=O)OC(C)(C)C)cc5)n4)c(F)c3F)C(=O)O)o2)cc1 (stereo not shown) [Compound 13F]
> 60%	CC(C)(C)OC(=O)Nc1ccc(-c2nc(-c3ccc(CC(NC(=O)Nc4ccc(C(F)(F)F)cc4)C(=O)O)cc3F)no2)cc1 (stereo not shown) [Compound 13H]
40 to 60%	Cc1ccc(-c2ccc(C(=O)NC(Cc3ccc(-c4noc(-c5ccc(NC(=O)OC(C)(C)C)cc5)n4)c(C#N)c3)C(=O)O)o2)cc1 (stereo not shown) [Compound 13I]
> 60%	CC(C)(C)OC(=O)Nc1ccc(-c2nc(-c3ccc(CC(NC(=O)Nc4ccc(-c5ccc(C(F)(F)F)cc5)cn4)C(=O)O)cc3F)no2)cc1 (stereo not shown) [Compound 13K]
> 60%	Cc1cccc(-c2ccc(NC(=O)NC(Cc3ccc(-c4noc(-c5ccc(NC(=O)OC(C)(C)C)cc5)n4)c(F)c3)C(=O)O)nc2)c1 (stereo not shown) [Compound 13L]
> 60%	Cc1ccc(-c2ccc(NC(=O)NC(Cc3ccc(-c4noc(-c5ccc(NC(=O)OC(C)(C)C)cc5)n4)c(F)c3)C(=O)O)nc2)cc1Cl (stereo not shown) [Compound 13M]
> 60%	CC(C)(C)OC(=O)Nc1ccc(-c2nc(-c3ccc(CC(NC(=O)Nc4ccc(-c5ccc(OC(F)(F)F)cc5)cn4)C(=O)O)cc3F)no2)cc1 (stereo not shown) [Compound 13N]
40 to 60%	CC(C)c1ccc(-c2ccc(NC(=O)NC(Cc3ccc(-c4noc(-c5ccc(NC(=O)OC(C)(C)C)cc5)n4)c(F)c3)C(=O)O)nc2)cc1 (stereo not shown) [Compound 13O]
> 60%	Cc1ccc(N2CCC(NC(=O)NC(Cc3ccc(-c4noc(-c5ccc(NC(=O)OC(C)(C)C)cc5)n4)c(F)c3)C(=O)O)C2)cc1 (stereo not shown) [Compound 13P]
> 60%	CC(C)(C)OC(=O)Nc1ccc(-c2nc(-c3ccc(CC(NC(=O)c4cccc(-c5ccc(Cl)cc5)c4)C(=O)O)cc3F)no2)cc1 (stereo not shown) [Compound 13Q]

Continued, molecule first:

Structure (SMILES)	activation at 10 µM
CC(C)c1ccc(S(=O)(=O)NC(Cc2ccc(-c3noc(-c4ccc(NC(=O)OC(C)(C)C)cc4)n3)c(F)c2)C(=O)O)cc1 (stereo not shown) [Compound 11C]	20 to 40%
Cc1ccc(CNC(=O)C(Cc2ccc(OC(=O)c3ccc(NC(=O)OC(C)(C)C)cc3)c(F)c2)c2nnn[nH]2)cc1 (stereo not shown) [Compound 11D]	20 to 40%
Cc1ccc(S(=O)(=O)NC(Cc2ccc(-c3noc(-c4ccc(NC(=O)OC(C)(C)C)cc4)n3)c(F)c2)C(=O)O)cc1Cl (stereo not shown) [Compound 11F]	40 to 60%
CC(C)(C)OC(=O)Nc1ccc(-c2nc(-c3ccc(CC(NC(=O)c4ccc(-c5ccc([N+](=O)[O-])cc5)o4)C(=O)O)cc3F)no2)cc1 (stereo not shown) [Compound 11G]	> 60%
CC(C)(C)OC(=O)Nc1ccc(-c2nc(-c3ccc(CC(NS(=O)(=O)c4ccc([N+](=O)[O-])cc4)C(=O)O)cc3F)no2)cc1 (stereo not shown) [Compound 11H]	40 to 60%
Cc1cc(C)c(S(=O)(=O)NC(Cc2ccc(-c3noc(-c4ccc(NC(=O)OC(C)(C)C)cc4)n3)c(F)c2)C(=O)O)c(C)c1 (stereo not shown) [Compound 11I]	40 to 60%
CC(C)(C)OC(=O)Nc1ccc(-c2nc(-c3ccc(CC(NS(=O)(=O)c4cccc5cccnc45)C(=O)O)cc3F)no2)cc1 (stereo not shown) [Compound 11J]	> 60%
CC(C)(C)OC(=O)Nc1ccc(-c2nc(-c3ccc(CC(NS(=O)(=O)c4ccc(-c5ccccc5)cc4)C(=O)O)cc3F)no2)cc1 (stereo not shown) [Compound 11K]	> 60%
CC(C)(C)OC(=O)Nc1ccc(-c2nc(-c3ccc(CC(NS(=O)(=O)c4ccc(OC(F)(F)F)cc4)C(=O)O)cc3F)no2)cc1 (stereo not shown) [Compound 11L]	20 to 40%
CC(C)(C)OC(=O)Nc1ccc(-c2nc(-c3ccc(CC(NS(=O)(=O)c4ccc(C(F)(F)F)cc4[N+](=O)[O-])C(=O)O)cc3F)no2)cc1 (stereo not shown) [Compound 11M]	> 60%
Cc1ccc(-c2cccc(C(=O)NC(Cc3ccc(-c4noc(-c5ccc(NC(=O)OC(C)(C)C)cc5)n4)c(F)c3)C(=O)O)c2)cc1 (stereo not shown) [Compound 11N]	> 60%
CC(C)(C)OC(=O)Nc1ccc(-c2nc(-c3ccc(CC(NC(=O)c4ccc(-c5ccc(C(F)(F)F)cc5)o4)C(=O)O)cc3F)no2)cc1 (stereo not shown) [Compound 11O]	> 60%
CC(C)(C)OC(=O)Nc1ccc(-c2nc(-c3ccc(CC(NC(=O)c4ccc(-c5ccc(F)cc5)s4)C(=O)O)cc3F)no2)cc1 (stereo not shown) [Compound 11P]	20 to 40%
Cc1ccc(CN2CCN(C(=O)NC(Cc3ccc(-c4noc(-c5ccc(NC(=O)OC(C)(C)C)cc5)n4)c(F)c3)C(=O)O)CC2)cc1 (stereo not shown) [Compound 11Q]	> 60%
CC(C)(C)OC(=O)Nc1ccc(-c2nc(-c3ccc(CC(NC(=O)C4CCN(C(=O)OC(C)(C)C)CC4)C(=O)O)cc3F)no2)cc1 (stereo not shown) [Compound 11R]	> 60%
CC(C)(C)OC(=O)Nc1ccc(-c2nc(-c3ccc(CC(NC(=O)Nc4cc(-c5ccccc5)n[nH]4)C(=O)O)cc3F)no2)cc1 (stereo not shown) [Compound 11S]	> 60%
CC(C)(C)OC(=O)Nc1ccc(-c2nc(-c3ccc(CC(NC(=O)CN4CCN(C(=O)OC(C)(C)C)CC4)C(=O)O)cc3F)no2)cc1 (stereo not shown) [Compound 11T]	40 to 60%
CN1CCN(c2ccc(C(=O)NC(Cc3ccc(-c4noc(-c5ccc(NC(=O)OC(C)(C)C)cc5)n4)c(F)c3)C(=O)O)o2)CC1 (stereo not shown) [Compound 11U]	20 to 40%
CC(C)(C)OC(=O)Nc1ccc(-c2nc(-c3ccc(CC(NC(=O)c4cn(-c5ccc(C(C)(C)C)cc5)nn4)C(=O)O)cc3F)no2)cc1 (stereo not shown) [Compound 11V]	> 60%
CC(C)(C)OC(=O)Nc1ccc(-c2nc(-c3ccc(CC(NS(=O)(=O)N4CCN(C(=O)OC(C)(C)C)CC4)C(=O)O)cc3F)no2)cc1 (stereo not shown) [Compound 11W]	40 to 60%
CC(C)(C)OC(=O)Nc1ccc(-c2nc(-c3ccc(CC(NS(=O)(=O)N4CCN(c5ccccc5)CC4)C(=O)O)cc3F)no2)cc1 (stereo not shown) [Compound 11X]	> 60%
CC(C)(C)OC(=O)Nc1ccc(-c2nc(-c3ccc(CC(NC(=O)c4cccc(N5CCCCC5)c4)C(=O)O)cc3F)no2)cc1 (stereo not shown) [Compound 11Y]	20 to 40%
CC(C)(C)OC(=O)Nc1ccc(-c2nc(-c3ccc(CC(NS(=O)(=O)NCc4ccccc4)C(=O)O)cc3F)no2)cc1 (stereo not shown) [Compound 11Z]	40 to 60%
CC(C)(C)OC(=O)Nc1ccc(-c2nc(-c3ccc(CC(NC(=O)N4CCN(c5ccc(C(F)(F)F)cc5)CC4)C(=O)O)cc3F)no2)cc1 (stereo not shown) [Compound 12A]	> 60%
CC(C)(C)OC(=O)Nc1ccc(-c2nc(-c3ccc(CC(NC(=O)N4CCN(c5cccc(Cl)c5)CC4)C(=O)O)cc3F)no2)cc1 (stereo not shown) [Compound 12C]	> 60%
CC(C)(C)OC(=O)Nc1ccc(-c2nc(-c3ccc(CC(NC(=O)N4CCN(c5ccccc5C#N)CC4)C(=O)O)cc3F)no2)cc1 (stereo not shown) [Compound 12D]	> 60%
CC(C)(C)OC(=O)Nc1ccc(-c2nc(-c3ccc(CC(NC(=O)N4CCN(c5cccc(C(F)(F)F)c5)CC4)C(=O)O)cc3F)no2)cc1 (stereo not shown) [Compound 12F]	> 60%
Cc1ccc(-c2cc(NC(=O)NC(Cc3ccc(-c4noc(-c5ccc(NC(=O)OC(C)(C)C)cc5)n4)c(F)c3)C(=O)O)[nH]n2)cc1 (stereo not shown) [Compound 12G]	> 60%
COc1ccc(-c2cc(NC(=O)NC(Cc3ccc(-c4noc(-c5ccc(NC(=O)OC(C)(C)C)cc5)n4)c(F)c3)C(=O)O)[nH]n2)cc1 (stereo not shown) [Compound 12H]	> 60%
CC(C)(C)OC(=O)Nc1ccc(-c2nc(-c3ccc(CC(NC(=O)Nc4cc(-c5ccc(F)cc5)n[nH]4)C(=O)O)cc3F)no2)cc1 (stereo not shown) [Compound 12I]	> 60%

Same assay, conditions: 6 h; concentration 1 μM; read-out: Activity (agonist), percentage of the activity of the control

activation at 1 µM	Structure (SMILES)
> 60%	Cc1ccc(-c2ccc(C(=O)N[C@H](Cc3cc(Br)cc(-c4noc(-c5ccc(NC(=O)OC(C)(C)C)cc5)n4)c3)C(=O)O)o2)cc1 [Compound 6Y]
40 to 60%	Cc1ccc(-c2ccc(C(=O)N[C@H](Cc3ccc(C)c(-c4noc(-c5ccc(NC(=O)OC(C)(C)C)cc5)n4)c3)C(=O)O)o2)cc1 [Compound 6Z]
> 60%	Cc1ccc(-c2ccc(C(=O)NC(Cc3cc(F)cc(C#Cc4ccc(NC(=O)OC(C)(C)C)cc4)c3)C(=O)O)o2)cc1 (stereo not shown) [Compound 7E]
> 60%	Cc1cc(-c2ccc(C(=O)N[C@H](Cc3ccc(-c4noc(-c5ccc(NC(=O)OC(C)(C)C)cc5)n4)c(F)c3)C(=O)O)o2)ccc1F [Compound 9E]
> 60%	Cc1cc(-c2ccc(C(=O)N[C@@H](Cc3ccc(-c4noc(-c5ccc(NC(=O)OC(C)(C)C)cc5)n4)c(F)c3)C(=O)O)o2)ccc1F [Compound 10E]

Same assay, conditions: 6 h; concentration 3 μM; read-out: Activity (agonist), percentage of the activity of the control

activation at 3 µM	Structure (SMILES)
> 60%	Cc1ccc(-c2cccc(C(=O)N[C@@H](Cc3ccc(-c4noc(-c5ccc(NC(=O)OC(C)(C)C)cc5)n4)c(F)c3)C(=O)O)c2)cc1 [Compound 8E]

Same assay, conditions: 6 h; concentration 3.16 μM; read-out: Activity (agonist), percentage of the activity of the control

activation at 3.16 µM	Structure (SMILES)
> 60%	Cc1ccc(-c2ccc(C(=O)N[C@H](Cc3ccc(-c4noc(-c5ccc(NC(=O)OC(C)(C)C)cc5)n4)c(F)c3)C(=O)O)o2)cc1 [Compound 11E]
> 60%	Cc1ccc(-c2ccc(C(=O)N[C@@H](Cc3ccc(-c4noc(-c5ccc(NC(=O)OC(C)(C)C)cc5)n4)c(F)c3)C(=O)O)o2)cc1 [Compound 12E]
